Experimental data as given in US20250090658A1, “POLYMER ADJUVANT” (Oxford University Innovation Limited, priority 2014, published 2025).
“Also recorded” adds a separate entry of the source.

Assays:
serum IL-12p40 and IP-10 = experiment: Serum (systemic) cytokines after subcutaneous administration (ELISA); format: in vivo, C57/BL6 mice
Description: FIG. 9: Morphology of the carrier and TLR-7/8a agonist density, dose and potency independently influence the magnitude and spatiotemporal characteristics of innate immune activation. (a-g) To facilitate in vivo tracking, dye-labeled Poly-7/8a (PP-7/8a^Hi, PP-7/8a^Lo, PC-7/8a^Lo) (Note PP-7/8a^Hi=10 mol % and PP-7/8a^Lo=3 mol %) and small molecule TLR-7/8a normalized for TLR-7/8a dose (12.5 nmol), and controls, were delivered subcutaneously to the left footpad of mice. […] (c-e) Draining lymph nodes (n=3) were harvested at serial timepoints and evaluated by flow cytometry. […] Total CD11c^+ DC were evaluated for (d) adjuvant uptake (% Ax488^+), (e,f) relative adjuvant uptake per cell (Ax488 MFI; note that PP-7/8a^Lo and PC-7/8a^Lo are matched for TLR-7/8a density and dose), (g) magnitude and (h) activation (CD80 co-stimulatory molecule expression). (i) IL-12p40 was measured from the supernatant of ex vivo lymph node cultures. […] At day 28, tetramer+CD8 T cell responses were evaluated from whole blood. […] (n) Total IgG antibody titers and the ratio of IgG1/IgG2c antibody endpoint titers were evaluated from sera on day 28.
FIG. 10: Persistent local innate immune by particulate Poly-7/8a (PP-7/8a) activation is necessary and sufficient for inducing protective CD8 T cell responses. […] (b) Serum (n=3-5) was assessed for IL-12p40 by ELISA at serial timepoints. […]

[1] = Body weight change after subcutaneous adjuvant administration; format: in vivo, C57/BL6 mice
Description: FIG. 10: Persistent local innate immune by particulate Poly-7/8a (PP-7/8a) activation is necessary and sufficient for inducing protective CD8 T cell responses. (a-c) CpG (20 μg), R848 (62.5 nmol) or PP-7/8a^Hi (62.5 nmol) were delivered subcutaneously into both hind footpads of C57/BL6 mice. (a) Supernatant of ex vivo cultured lymph node cell suspensions (n=4) were evaluated for IL-12p40 by ELISA at serial timepoints. (b) Serum (n=3-5) was assessed for IL-12p40 by ELISA at serial timepoints. (c) Percent body weight change (n=3) following subcutaneous administration of different vaccine adjuvants. (d) A model for understanding the relationship between biodistribution and local and systemic innate immune activation. (e, f) C57/BL6 mice (n=6) received a single subcutaneous footpad injection of 50 μg of OVA formulated with adjuvant at days 0 and 14. (e) At day 25, tetramer^+ CD8 T cell responses from whole blood were evaluated by flow cytometry. (f) Mice (n=6) were challenged intravenously at day 28 with LM-OVA and bacterial burden in the spleens was evaluated on day 31. (g, h) Immunogenicity experiments were repeated using SIV Gag p41 in place of OVA.

[2] = Biodistribution and kinetics of dye-labeled materials after subcutaneous administration (X-ray and epifluorescence imaging); format: in vivo, mice
Description: (§1) FIG. 9: Morphology of the carrier and TLR-7/8a agonist density, dose and potency independently influence the magnitude and spatiotemporal characteristics of innate immune activation. (a-g) To facilitate in vivo tracking, dye-labeled Poly-7/8a (PP-7/8a^Hi, PP-7/8a^Lo, PC-7/8a^Lo) (Note PP-7/8a^Hi=10 mol % and PP-7/8a^Lo=3 mol %) and small molecule TLR-7/8a normalized for TLR-7/8a dose (12.5 nmol), and controls, were delivered subcutaneously to the left footpad of mice. (a, b) mice (n=3) that received IR-dye labeled materials were imaged by dual modality X-ray and epifluorescence spectroscopy; (a) Representative images illustrating biodistribution over the first 2 days; (b) Kinetics of the different constructs in the popliteal lymph node. (c-e) Draining lymph nodes (n=3) were harvested at serial timepoints and evaluated by flow cytometry. […] Total CD11c^+ DC were evaluated for (d) adjuvant uptake (% Ax488^+), (e,f) relative adjuvant uptake per cell (Ax488 MFI; note that PP-7/8a^Lo and PC-7/8a^Lo are matched for TLR-7/8a density and dose), (g) magnitude and (h) activation (CD80 co-stimulatory molecule expression). (i) IL-12p40 was measured from the supernatant of ex vivo lymph node cultures. […] At day 28, tetramer+CD8 T cell responses were evaluated from whole blood. […] (n) Total IgG antibody titers and the ratio of IgG1/IgG2c antibody endpoint titers were evaluated from sera on day 28.

Th1 CD4 T cells = experiment: MML immunization, antigen-specific Th1 cytokine producing CD4 T cells in splenocytes; format: in vivo, C57/BL6 mice; details: 20 μg MML, days 0, 21 and 42
Description: FIG. 11: Particulate Poly-7/8a induce Th1 CD4 T cells that mediate protection against Leishmania major. C57/BL6 mice received subcutaneous immunizations of 20 μg of MML protein either alone, or formulated with an adjuvant, on days 0, 21 and 42. (a) Splenocytes were isolated on day 70 and stimulated in vitro with MML peptide pool. Antigen-specific cytokine producing CD4 T cells in the mixed splenocyte cultures were quantified by flow cytometry (n=5) for their capacity to produce Th1 characteristic cytokines (IFNγ, IL-2 and TNFα). (b) Mice (n=6) were challenged intradermally in both ears with L major at day 70. Ear lesion diameters were measured for 12 weeks.

CD11c+ DC = experiment: DC recruitment and activation (CD80) in draining lymph nodes; format: in vivo, mice; details: TLR-7/8a dose 12.5 nmol, subcutaneous
Description: as §1

hTLR7 = target: T1, hTLR7 (Homo sapiens, UniProt Q9NYK1); experiment: HEK293 hTLR7 reporter cell assay (absorbance at 405 nm); format: cell-based; details: HEK293 hTLR7 reporter cells
T1 construct: expressed in transfected cells; host or cells: HEK293
T1 sequence (Q9NYK1 27-1049): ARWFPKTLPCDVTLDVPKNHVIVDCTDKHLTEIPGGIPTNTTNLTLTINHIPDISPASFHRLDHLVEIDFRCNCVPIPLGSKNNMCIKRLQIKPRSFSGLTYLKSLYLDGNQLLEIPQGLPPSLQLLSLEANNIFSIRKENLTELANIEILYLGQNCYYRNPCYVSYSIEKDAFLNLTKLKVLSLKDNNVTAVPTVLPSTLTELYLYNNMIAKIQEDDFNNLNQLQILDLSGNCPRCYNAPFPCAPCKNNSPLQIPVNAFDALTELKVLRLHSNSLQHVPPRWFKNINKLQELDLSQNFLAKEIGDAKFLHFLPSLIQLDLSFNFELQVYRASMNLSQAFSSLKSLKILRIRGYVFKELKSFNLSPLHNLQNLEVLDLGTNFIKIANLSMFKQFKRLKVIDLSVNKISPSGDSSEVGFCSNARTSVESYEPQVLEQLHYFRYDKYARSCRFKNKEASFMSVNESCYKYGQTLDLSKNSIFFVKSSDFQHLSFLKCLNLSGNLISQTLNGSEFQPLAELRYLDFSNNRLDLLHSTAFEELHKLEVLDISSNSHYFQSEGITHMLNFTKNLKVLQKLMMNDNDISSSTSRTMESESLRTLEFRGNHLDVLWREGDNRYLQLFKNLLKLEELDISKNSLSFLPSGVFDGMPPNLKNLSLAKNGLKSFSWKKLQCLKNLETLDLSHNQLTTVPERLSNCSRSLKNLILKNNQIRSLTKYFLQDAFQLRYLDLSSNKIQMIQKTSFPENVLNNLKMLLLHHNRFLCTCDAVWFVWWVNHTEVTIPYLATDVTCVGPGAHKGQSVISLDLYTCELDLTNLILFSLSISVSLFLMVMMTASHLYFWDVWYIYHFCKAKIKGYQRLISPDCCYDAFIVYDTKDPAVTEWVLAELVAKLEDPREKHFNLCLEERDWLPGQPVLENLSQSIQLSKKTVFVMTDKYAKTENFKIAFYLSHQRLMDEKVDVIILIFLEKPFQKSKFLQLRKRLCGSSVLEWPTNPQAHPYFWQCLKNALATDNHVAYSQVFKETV
Description: FIG. 6: Combinatorial synthesis was used to generate diverse arrays of Poly-7/8a. […] The potency of these two TLR-7/8a was evaluated in vitro using HEK293 hTLR7 reporter cells; absorbance at 405 nm is proportional to TLR7 binding. (b) A combinatorial library of Poly-7/8a was generated by attaching 2 unique TLR-7/8a (SM 7/8a or SM 20×7/8a) to reactive HPMA-based copolymers at different densities (˜2,4, 8 mol %) using either a short, alkane or PEG linker. By reacting 2 unique TLR-7/8a, at 3 different densities, using 3 different linkers, there are 18 unique products that can be generated, as illustrated (c). Note that this cartoon representation is for illustrative purposes; not all Poly-7/8a represented in this schematic were evaluated in this study, nor does this schematic represent all the materials described herein.

[3] = Particle formation and size in aqueous solution by (dynamic) light scattering; format: physicochemical; details: 0.1 mg/mL PBS
Description: FIG. 7: In vivo screening of a combinatorial library of Poly-7/8a yields structure-activity insights. (a) Lymph node (n=4) IL-12p40 induced by a combinatorial library of Poly-7/8a. (b) Influence of TLR-7/8a density on lymph node (n=6) IL-12p40 and IP-10 levels (left y-axis, line graphs) and particle size assessed by dynamic light scattering (right y-axis, bar graph). (c) Cryo-electron microscopy of selected samples is shown for illustrative purposes. […] SM=small molecule; PC=polymer coil; PP=polymer particle.
FIG. 8: Increasing density of agonists on polymers results in an increased tendency of Poly-7/8a to form particles in aqueous solutions and is associated with enhanced local innate immune activity. (b) Negative control polymers were generated using aminopyridine (AP) to account for the contribution of the aromatic amine present on the imidazoquinoline based TLR-7/8a used in this study. AP was attached to polymers either through a PEG or amphiphilic (AMPH) spacer. […] 24 h after administration, supernatant of overnight lymph node cell suspensions were assessed for IFNα (d) or IFNγ (e) by ELISA. (f-g) Lymph nodes were isolated from wild type (WT), TLR-7 knockout or Caspase 1/11 (inflammasome) knockout mice 24 h after subcutaneously administering Poly-7/8a^10%; culture supernatants were evaluated for IP-10 and IL-12 by ELISA.

CCOCc1nc2c(N)nc3ccccc3c2n1CC(C)(C)O [R848]
systemic (sera) cytokines (serum IL-12p40 and IP-10; CpG 20 μg, R848 62.5 nmol, PP-7/8a^Hi 62.5 nmol, subcutaneous): only induced systemic (sera) cytokines; also recorded: high levels of transient systemic cytokine production
mouse body weight [1]: transient decreases in mouse body weight

CCOCc1nc2c(N)nc3ccccc3c2n1CCCCN [SM 7/8a, 1-(4-aminobutyl)-2-(ethoxymethyl)-1H-imidazo[4,5-c]quinolin-4-amine]
time after which undetectable [2]: ≤ 1 days
biodistribution / retention ([2]; normalized for TLR-7/8a dose): distributed systemically
Th1-type CD4 cell responses (Th1 CD4 T cells): equivalent to MML administered alone
serum cytokines (serum IL-12p40 and IP-10; TLR-7/8a dose 12.5 nmol, local (subcutaneous) administration): high levels of serum cytokines
DC recruitment, activation and cytokine production in draining lymph nodes (CD11c+ DC): limited lymph node responses

CCCCc1nc2c(N)nc3ccccc3c2n1Cc1ccc(CN)cc1 [SM 20×7/8a, 1-(4-(aminomethyl)benzyl)-2-butyl-1H-imidazo[4,5-c]quinolin-4-amine]
potency relative to SM 7/8a (hTLR7): ~20 fold

p[(HPMA)-co-(Ma-β-Ala-PEG-Pam2Cys)] [Poly-PEG-Pam2Cys]
z-average diameter [3]: 2,744±384.8 nm
